Test results as given in patent EP4810052A2, “HCRHR2 SELECTIVE POLYPEPTIDES” (Gubra A/S, priority 2023, dated 2026).
Where two headings read alike, the source gives them in different places. Starred links: 1 amine or outer side, 2 acyl side, 3 side chain; linkers in the order of their positions; H or OH if unused. Non-standard residues stand in square brackets, D forms with d. Residues, ends and D or L forms follow the SMILES beside them. Groups on a side chain read outwards from the residue. *: point of attachment. C20 diacid = O=C(O)CCCCCCCCCCCCCCCCCCC(=O)*; γGlu = O=C(O)[C@H](CCC(=O)[*:2])N[*:1]; NMeI = CC[C@H](C)[C@H](NC)C(=O)O; Nle = CCCC[C@H](N)C(=O)O; AEEA = NCCOCCOCC(=O)O; Aib = CC(C)(N)C(=O)O

Experiments:
hCRHR1 = biological target: T1, hCRHR1 (Homo sapiens, UniProt P34998); assay: HTRF cAMP assay, determination of hCRHR1 potency (peptide libraries 5 conc., purified peptides 11 conc.); type: cell-based
T1 sequence (P34998 24-415): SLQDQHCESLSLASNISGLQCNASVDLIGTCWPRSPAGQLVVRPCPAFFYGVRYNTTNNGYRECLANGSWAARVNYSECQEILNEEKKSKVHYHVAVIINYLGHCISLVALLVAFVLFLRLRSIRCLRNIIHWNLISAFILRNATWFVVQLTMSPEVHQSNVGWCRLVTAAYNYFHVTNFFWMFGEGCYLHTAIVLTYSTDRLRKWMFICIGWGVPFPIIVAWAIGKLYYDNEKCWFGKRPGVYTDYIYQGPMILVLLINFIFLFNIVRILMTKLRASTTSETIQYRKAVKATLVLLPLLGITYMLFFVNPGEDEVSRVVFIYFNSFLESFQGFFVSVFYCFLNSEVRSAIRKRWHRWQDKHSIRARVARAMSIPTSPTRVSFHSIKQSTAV
How it was run: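 Cellular cAMP was read by time-resolved FRET between d2-labelled cAMP and cryptate anti-cAMP antibody. The cells were freshly thawed suspension CHO-K1 cells stably expressing human CRHR1.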

hCRHR2 = biological target: T2, hCRHR2 (Homo sapiens, UniProt Q13324); assay: HTRF cAMP assay, determination of hCRHR2 potency (peptide libraries 5 conc., purified peptides 11 conc.); type: cell-based
T2 sequence (Q13324 1-411): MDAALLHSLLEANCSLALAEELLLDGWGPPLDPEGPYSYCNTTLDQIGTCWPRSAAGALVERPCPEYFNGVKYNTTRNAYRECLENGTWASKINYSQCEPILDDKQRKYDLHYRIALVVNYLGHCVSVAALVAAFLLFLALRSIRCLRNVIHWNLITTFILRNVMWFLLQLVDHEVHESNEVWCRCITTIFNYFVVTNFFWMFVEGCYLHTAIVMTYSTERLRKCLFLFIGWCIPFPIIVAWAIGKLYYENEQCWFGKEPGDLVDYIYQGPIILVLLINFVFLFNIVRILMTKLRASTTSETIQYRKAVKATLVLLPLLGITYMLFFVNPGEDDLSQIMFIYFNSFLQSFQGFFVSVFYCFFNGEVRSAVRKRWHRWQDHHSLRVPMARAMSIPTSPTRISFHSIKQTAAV
How it was run: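 Cells: CHO-K1/hCRHR2 stable clone, suspension, freshly thawed. Readout: competitive TR-FRET, anti-cAMP cryptate vs cAMP-d2. Analysis: sigmoid variable-slope nonlinear regression → EC50.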

SMILES | EC50 (hCRHR1; library peptides, matched molecular pairs L vs Nle in position X^38, read-out: Potency hCRHR1 pEC50 (converted)) | EC50 (hCRHR2; library peptides, matched molecular pairs L vs Nle in position X^38, read-out: Potency hCRHR2 pEC50 (converted)) | EC50 (hCRHR1; Table 4, library peptides having X^38 = Nle, read-out: hCRHR1 pEC50 (converted)) | EC50 (hCRHR2; Table 4, library peptides having X^38 = Nle, read-out: hCRHR2 pEC50 (converted))
CC[C@H](C)[C@H](N)C(=O)N[C@H](C(=O)N[C@@H](CC(C)C)C(=O)N[C@@H](CO)C(=O)N[C@@H](CC(C)C)C(=O)N[C@@H](CC(=O)O)C(=O)N[C@H](C(=O)N1CCC[C@H]1C(=O)N[C@H](C(=O)NCC(=O)N[C@@H](CC(C)C)C(=O)N[C@@H](CC(C)C)C(=O)N[C@@H](CCC(N)=O)C(=O)N[C@H](C(=O)N[C@@H](CC(C)C)C(=O)N[C@@H](CC(C)C)C(=O)N[C@@H](CCC(=O)O)C(=O)N[C@@H](CCC(N)=O)C(=O)N[C@@H](C)C(=O)N[C@@H](CCCNC(=N)N)C(=O)N[C@@H](C)C(=O)N[C@@H](CCCNC(=N)N)C(=O)N[C@@H](C)C(=O)N[C@@H](C)C(=O)N[C@@H](CCCNC(=N)N)C(=O)N[C@@H](CCC(=O)O)C(=O)N[C@@H](CCC(N)=O)C(=O)N[C@@H](C)C(=O)N[C@@H](CCCCNC(=O)COCCOCCNC(=O)COCCOCCNC(=O)CC[C@H](NC(=O)CC[C@H](NC(=O)CCCCCCCCCCCCCCCCCCC(=O)O)C(=O)O)C(=O)O)C(=O)N[C@H](C(=O)N[C@@H](CC(N)=O)C(=O)N[C@@H](C)C(=O)N[C@@H](CCC(=O)O)C(=O)N[C@H](C(=O)N[C@@H](CC(C)C)C(=O)N[C@@H](C)C(=O)N[C@@H](CCC(=O)O)C(=O)N[C@H](C(N)=O)[C@@H](C)CC)[C@@H](C)CC)[C@@H](C)O)[C@@H](C)CC)[C@@H](C)CC)C(C)C)C(C)C [compound 68] (H-IVLSLDVPIGLLQILLEQARARAAREQAK([AEEA-AEEA-γGlu-γGlu-C20 diacid])TNAEILAEI-NH2) | 63.1 µM | 0.251 nM | – | –
CCCC[C@H](NC(=O)[C@@H](NC(=O)[C@H](CCC(=O)O)NC(=O)[C@H](C)NC(=O)[C@H](CC(N)=O)NC(=O)C(C)(C)NC(=O)[C@H](CCCCNC(=O)COCCOCCNC(=O)COCCOCCNC(=O)CC[C@H](NC(=O)CC[C@H](NC(=O)CCCCCCCCCCCCCCCCCCC(=O)O)C(=O)O)C(=O)O)NC(=O)[C@H](C)NC(=O)[C@H](CCC(N)=O)NC(=O)[C@H](CCC(=O)O)NC(=O)[C@H](CCCNC(=N)N)NC(=O)[C@H](C)NC(=O)[C@H](C)NC(=O)[C@H](CCCNC(=N)N)NC(=O)[C@H](C)NC(=O)[C@H](CCCNC(=N)N)NC(=O)[C@H](C)NC(=O)[C@H](CCC(N)=O)NC(=O)[C@H](Cc1ccccc1)NC(=O)[C@H](CC(C)C)NC(=O)[C@H](CC(C)C)NC(=O)[C@@H](NC(=O)[C@H](CCC(N)=O)NC(=O)[C@H](CC(C)C)NC(=O)[C@H](CC(C)C)NC(=O)CNC(=O)[C@@H](NC(=O)[C@@H]1CCCN1C(=O)[C@@H](NC(=O)[C@H](CC(=O)O)NC(=O)[C@H](CC(C)C)NC(=O)[C@H](CO)NC(=O)[C@H](CC(C)C)NC(=O)[C@@H](NC(=O)[C@@H](NC)[C@@H](C)CC)C(C)C)C(C)C)[C@@H](C)CC)[C@@H](C)CC)[C@@H](C)CC)C(=O)N[C@@H](C)C(=O)N[C@@H](CCC(=O)O)C(=O)N[C@H](C(N)=O)C(C)C [compound 128] (H-[NMeI]VLSLDVPIGLLQILLFQARARAAREQAK([AEEA-AEEA-γGlu-γGlu-C20 diacid])[Aib]NAEI[Nle]AEV-NH2) | – | – | 100 µM | 0.00501 nM
